Measured values: ChEMBL document CHEMBL5154733, “Targeting NLRP3 signaling by a novel-designed sulfonylurea compound for inhibition of microglial inflammation” (Bioorg Med Chem, 2022)
Active and inactive are the calls of the source. No cut-off for these calls is given here.

Experiments:
[1] = Inhibition of LPS-induced of IL-1beta expression in mouse N9 cells assessed as IL-1beta level at 2.8 uM incubated for 24 hrs dosed 24 hrs after LPS stimulation by ELISA (reference value: 100 pg/ml); assay type: functional
[2] = Stabilization of microglia morphology in mouse N9 cells assessed as resting morphology level at 2.8 uM incubated for 24 hrs dosed 24 hrs after LPS stimulation by (reference value: 18%); assay type: functional
[3] = Inhibition of LPS-induced of IL-1beta expression in mouse N9 cells assessed as relative IL-1beta expression at 2.8 uM incubated for 24 hrs dosed 24 hrs after LPS stimulation by Quantitative PCR assay (reference value: 7 fold); assay type: functional
[4] = tested on: Brain; experiment: Suppression of microglia activation in C57BL/6 mouse brain assessed as maintenance of microglia morphology by measuring Iba1 positive cell number in cerebral cortex positive cells in cerebral cortex area at 55 mg/kg, ip by immunofluorescence staining; assay type: functional, organism-based
[5] = tested on: Brain; experiment: Suppression of microglia activation in C57BL/6 mouse brain assessed as maintenance of microglia morphology by measuring Iba1 positive cells in cerebral cortex area at 55 mg/kg, ip by immunofluorescence staining; assay type: functional, organism-based
[6] = tested on: N9; experiment: Inhibition of LPS-induced of NLRP3 expression in mouse N9 cells at 0.7 to 2.8 uM incubated for 24 hrs dosed 24 hrs after LPS stimulation by Quantitative PCR assay; assay type: functional; conditions: dose 0.7-2.8 µM, DDE = dose-dependent effect
[7] = tested on: N9; experiment: Inhibition of LPS-induced of phagocytosis in mouse N9 cells assessed as decrease in FAM positive cell number at 2.8 uM incubated for 24 hrs dosed 24 hrs after LPS stimulation by FAM-labeled fluorescent Abeta-42 peptide based fluorescence assay; assay type: functional
[8] = tested on: N9; experiment: Inhibition of LPS-induced of NLRP3 expression in mouse N9 cells at 2.8 uM incubated for 24 hrs dosed 24 hrs after LPS stimulation by Western blot; assay type: functional
[9] = Inhibition of LPS-induced of NLRP3 expression in mouse N9 cells assessed as NLRP3 expression level at 0.7 uM incubated for 24 hrs dosed 24 hrs after LPS stimulation by Quantitative PCR assay; assay type: functional; parameters: scale not given: the % may be the effect or the level left
[10] = Toxicity in mouse N9 cells assessed as effect on cell viability at 0.35 to 5.6 uM incubated for 24 hrs by MTT assay; assay type: cell-based; conditions: n9, 24 h, dose 0.35-5.6 µM
[11] = tested on: N9; experiment: Inhibition of LPS-induced Caspase-1 expression in mouse N9 cells at 2.8 uM incubated for 24 hrs dosed 24 hrs after LPS stimulation by FLICA 660 Caspase-1 assay; assay type: functional
[12] = tested on: N9; experiment: Inhibition of LPS-induced of iNOS expression in mouse N9 cells at 2.8 uM incubated for 24 hrs dosed 24 hrs after LPS stimulation by Western blot; assay type: functional
[13] = tested on: N9; experiment: Inhibition of LPS-induced of phagocytosis in mouse N9 cells assessed as decrease in intracellular FAM-Abeta42 fluorescent intensity at 2.8 uM incubated for 24 hrs dosed 24 hrs after LPS stimulation by FAM-labeled fluorescent Abeta-42 peptide based fluorescence assay; assay type: functional
[14] = tested on: N9; experiment: Inhibition of LPS-induced of TNF-alpha expression in mouse N9 cells at 2.8 uM incubated for 24 hrs dosed 24 hrs after LPS stimulation by ELISA; assay type: functional
[15] = Inhibition of LPS-induced of NLRP3 expression in mouse N9 cells assessed as NLRP3 expression level at 1.4 uM incubated for 24 hrs dosed 24 hrs after LPS stimulation by Quantitative PCR assay; assay type: functional; parameters: scale not given: the % may be the effect or the level left
[16] = Inhibition of LPS-induced of NLRP3 expression in mouse N9 cells assessed as NLRP3 expression level at 2.8 uM incubated for 24 hrs dosed 24 hrs after LPS stimulation by Quantitative PCR assay; assay type: functional; parameters: scale not given: the % may be the effect or the level left
[17] = tested on: N9; experiment: Inhibition of LPS-induced of nitric oxide production in mouse N9 cells at 2.8 uM incubated for 24 hrs dosed 24 hrs after LPS stimulation by DAF-FM dye based fluorescence assay; assay type: functional

With `O=C1N(c2cncnc2)CCCN1S(=O)(=O)c1ccc(C(F)(F)F)cc1` the Activity [1] was 70 pg/mL, the Activity [2] was 65% and the “fold change (FC)” value [3] was 2. The Activity [4] was “Active”, the Activity [5] was “Active” and the inhibition [6] was “Dde”. The inhibition [7] was “Active”, the inhibition [8] was “Active” and the Activity [9] was 370%. For the same compound, the Activity [10] was “Non-Toxic”, the inhibition [11] was “Active” and the inhibition [12] was “Active”. For the same compound, the inhibition [13] was “Active”, the inhibition [14] was “Active” and the Activity [15] was 220%. The Activity [16] was 100% and the inhibition [17] was “Active”.
